Results: ChEMBL document CHEMBL1143204, “Syntheses and in vitro evaluation of arylsulfone-based MMP inhibitors with heterocycle-derived zinc-binding groups (ZBGs)” (Bioorg Med Chem Lett, 2008)
pIC50: −log10 of the molar value.

How the values were obtained:
[1] = molecular target: Matrix metalloproteinase-9 (Homo sapiens, UniProt P14780); experiment: Inhibition of MMP9
[2] = molecular target: 72 kDa type IV collagenase (Homo sapiens, UniProt P08253); experiment: Inhibition of MMP2
Collagenase 3 = Collagenase 3 (Homo sapiens, UniProt P45452); experiment: Inhibition of MMP13
Stromelysin-1 = Stromelysin-1 (Homo sapiens, UniProt P08254); experiment: Inhibition of MMP3
Interstitial collagenase = molecular target: T1, Interstitial collagenase (Homo sapiens, UniProt P03956); experiment: Inhibition of MMP1
T1 sequence (P03956 whole entry): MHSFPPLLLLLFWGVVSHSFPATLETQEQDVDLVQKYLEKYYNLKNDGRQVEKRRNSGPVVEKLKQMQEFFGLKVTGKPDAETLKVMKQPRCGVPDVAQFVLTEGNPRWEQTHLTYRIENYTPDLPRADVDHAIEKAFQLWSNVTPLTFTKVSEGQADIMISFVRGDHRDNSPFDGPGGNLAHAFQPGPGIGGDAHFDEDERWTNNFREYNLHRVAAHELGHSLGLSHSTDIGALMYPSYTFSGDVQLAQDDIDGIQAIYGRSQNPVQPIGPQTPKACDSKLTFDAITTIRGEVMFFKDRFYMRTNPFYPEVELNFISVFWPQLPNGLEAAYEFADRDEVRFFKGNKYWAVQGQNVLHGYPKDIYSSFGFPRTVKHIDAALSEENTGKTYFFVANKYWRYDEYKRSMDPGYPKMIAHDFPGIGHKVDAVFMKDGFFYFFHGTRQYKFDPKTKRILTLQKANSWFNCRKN

Matrix metalloproteinase-9, sequence (P14780 whole entry): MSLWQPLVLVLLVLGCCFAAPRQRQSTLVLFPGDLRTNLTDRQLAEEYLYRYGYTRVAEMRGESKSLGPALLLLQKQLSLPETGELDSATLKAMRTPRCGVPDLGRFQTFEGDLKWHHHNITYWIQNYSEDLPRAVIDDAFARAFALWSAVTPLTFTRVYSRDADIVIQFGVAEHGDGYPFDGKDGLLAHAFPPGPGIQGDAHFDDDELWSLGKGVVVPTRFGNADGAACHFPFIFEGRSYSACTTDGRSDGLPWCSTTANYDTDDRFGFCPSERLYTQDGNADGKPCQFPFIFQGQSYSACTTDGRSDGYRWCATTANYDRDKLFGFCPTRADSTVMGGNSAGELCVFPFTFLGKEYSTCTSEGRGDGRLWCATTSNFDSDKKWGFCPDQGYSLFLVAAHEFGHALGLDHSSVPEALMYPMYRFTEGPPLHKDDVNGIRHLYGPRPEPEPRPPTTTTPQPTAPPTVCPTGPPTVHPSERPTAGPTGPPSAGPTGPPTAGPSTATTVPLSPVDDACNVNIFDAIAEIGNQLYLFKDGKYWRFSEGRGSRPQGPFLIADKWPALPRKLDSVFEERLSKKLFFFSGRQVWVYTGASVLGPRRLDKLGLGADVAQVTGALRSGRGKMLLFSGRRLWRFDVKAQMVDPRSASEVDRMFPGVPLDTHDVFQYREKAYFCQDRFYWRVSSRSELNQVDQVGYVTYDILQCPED
Stromelysin-1, sequence (P08254 whole entry): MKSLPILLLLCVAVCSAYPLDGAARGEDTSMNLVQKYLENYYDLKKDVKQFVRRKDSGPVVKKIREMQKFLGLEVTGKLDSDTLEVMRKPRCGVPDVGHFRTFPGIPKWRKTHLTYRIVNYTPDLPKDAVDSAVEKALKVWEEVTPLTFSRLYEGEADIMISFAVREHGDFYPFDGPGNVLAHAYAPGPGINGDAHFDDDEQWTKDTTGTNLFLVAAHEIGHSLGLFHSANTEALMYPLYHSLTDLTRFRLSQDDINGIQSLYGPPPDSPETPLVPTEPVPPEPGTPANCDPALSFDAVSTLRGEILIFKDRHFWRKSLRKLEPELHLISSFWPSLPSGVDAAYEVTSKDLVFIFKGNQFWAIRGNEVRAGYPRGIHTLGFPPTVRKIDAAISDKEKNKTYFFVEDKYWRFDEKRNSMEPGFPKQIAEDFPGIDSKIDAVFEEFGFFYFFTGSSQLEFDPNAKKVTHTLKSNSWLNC
72 kDa type IV collagenase, sequence (P08253 whole entry): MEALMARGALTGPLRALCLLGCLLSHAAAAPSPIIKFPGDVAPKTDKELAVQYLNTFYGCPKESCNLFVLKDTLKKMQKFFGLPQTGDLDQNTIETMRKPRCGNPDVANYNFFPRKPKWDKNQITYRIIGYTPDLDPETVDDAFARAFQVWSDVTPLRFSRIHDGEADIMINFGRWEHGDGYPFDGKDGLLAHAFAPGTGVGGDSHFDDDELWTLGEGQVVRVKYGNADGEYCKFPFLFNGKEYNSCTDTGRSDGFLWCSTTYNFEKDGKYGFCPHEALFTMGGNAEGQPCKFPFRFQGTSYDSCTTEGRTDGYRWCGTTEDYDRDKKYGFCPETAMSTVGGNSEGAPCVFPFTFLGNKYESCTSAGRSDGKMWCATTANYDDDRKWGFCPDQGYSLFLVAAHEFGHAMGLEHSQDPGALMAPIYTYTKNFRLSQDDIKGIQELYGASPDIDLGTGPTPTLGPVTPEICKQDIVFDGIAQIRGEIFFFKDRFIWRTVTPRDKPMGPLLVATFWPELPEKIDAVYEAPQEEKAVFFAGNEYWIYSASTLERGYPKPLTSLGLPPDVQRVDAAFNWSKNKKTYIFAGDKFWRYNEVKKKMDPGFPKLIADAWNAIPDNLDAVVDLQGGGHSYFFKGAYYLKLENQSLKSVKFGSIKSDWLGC

pIC50 [1] | pIC50 [2] | SMILES | pIC50 (Collagenase 3) | pIC50 (Stromelysin-1) | pIC50 (Interstitial collagenase)
7.67 | 7.23 | O=C1C(S(=O)(=O)c2ccc(Oc3ccc(OC(F)(F)F)cc3)cc2)CCCCN1O (stereo unspecified) | – | – | –
7.86 | 7.14 | COc1ccc(Oc2ccc(S(=O)(=O)Cn3cccc(O)c3=O)s2)cc1 | – | – | –
7.79 | 7.97 | O=c1c(O)cccn1CS(=O)(=O)c1ccc(Oc2ccc(Cl)cc2)cc1 | – | – | –
7.68 | 7.43 | O=C1[C@H](CS(=O)(=O)c2ccc(Oc3ccccc3)cc2)NCCCN1O | 7.96 | 6.02 | < 6.00
< 6.00 | < 6.00 | COc1ccc(-c2ccc(S(=O)(=O)C3CCCCN(O)C3=O)cc2)cc1 (stereo unspecified) | – | – | –
– | – | COc1ccc(Oc2ccc(S(=O)(=O)Cc3cccn(O)c3=O)cc2)cc1 | 7.87 | 6.51 | < 6.00
6.09 | – | Cc1ccc(S(=O)(=O)Cn2cccc(O)c2=O)cc1 | – | – | –
< 6.00 | < 6.00 | COc1ccc(-c2ccc(S(=O)(=O)Cn3cccc(O)c3=O)cc2)cc1 | – | – | –
< 6.00 | < 6.00 | COc1ccc(Oc2ccc(S(=O)(=O)C3CCCCCN(O)C3=O)cc2)cc1 (stereo unspecified) | – | – | –

SMILES | pIC50 [1] | pIC50 [2] | pIC50 (Collagenase 3) | pIC50 (Stromelysin-1) | pIC50 (Interstitial collagenase)
O=c1c(O)cccn1CS(=O)(=O)c1ccc(Oc2ccc(OC(F)(F)F)cc2)cc1 | 8.40 | 7.90 | 8.14 | 6.69 | < 6.00
